Assay results: patent publication US12006330B2, “Substituted macrocyclic compounds and related methods of treatment” (Alkermes, Inc., priority 2020, dated 2024)

How the values were obtained:
[1] = biological target: T1, human orexin-2 receptor (OX2R) (Homo sapiens, UniProt O43614); assay: Human OX2R IP1 assay; type: cell-based; conditions: T-Rex CHO cells stably overexpressing human OX2R; IP1 accumulation; 1 hr at 37 degrees C; mean EC50
T1 construct: expressed in transfected cells
T1 sequence (O43614 1-444): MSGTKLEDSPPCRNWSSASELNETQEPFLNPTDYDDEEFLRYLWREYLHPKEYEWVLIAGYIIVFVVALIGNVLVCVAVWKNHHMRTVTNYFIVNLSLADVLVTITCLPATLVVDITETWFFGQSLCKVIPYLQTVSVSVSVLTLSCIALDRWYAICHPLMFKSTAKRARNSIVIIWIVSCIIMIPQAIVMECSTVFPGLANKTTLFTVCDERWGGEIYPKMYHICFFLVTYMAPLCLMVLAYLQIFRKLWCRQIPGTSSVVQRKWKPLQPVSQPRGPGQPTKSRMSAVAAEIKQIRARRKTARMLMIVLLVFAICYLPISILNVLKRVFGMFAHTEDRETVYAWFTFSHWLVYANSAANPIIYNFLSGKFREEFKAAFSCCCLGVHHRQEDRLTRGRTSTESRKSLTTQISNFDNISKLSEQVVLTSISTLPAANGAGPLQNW
Method in brief: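 T-Rex CHO cells stably expressing human OX2R, doxycycline-induced (1 μg/mL) overnight, treated with compounds 1 h at 37 °C in pH 7.4 buffer with 50 mM LiCl. IP1 accumulation read by HTRF competitive immunoassay after 1 h at room temperature; agonist EC50 reported as mean ± S.E.M.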

MDR1 = assay: MDCK-MDR1 permeability assay; type: in vitro ADME; conditions: dog, MDCK-MDR1, MDCK-MDR1 cells; for efflux ratio at 2 h, 3 μM: Papp B→A divided by Papp A→B, read-out: Efflux ratio (ER); for Papp A→B at 2 h, 3 μM: test compound 3 μM, 2 hours at 37 degrees C, apical to basolateral
Method in brief: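 Receiver and donor compartments were analysed by LC-MS/MS after a 2 h incubation at 37 °C of 3 μM compound in HBSS on MDCK-MDR1 monolayers, run in both directions with Lucifer Yellow (100 μM) as integrity marker. Apparent permeability came from translocation rate, insert area and initial concentration; B→A/A→B Papp gave the efflux ratio, alongside percent recovery.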

[2] = Hepatocytes stability assay (human hepatocytes); type: in vitro ADME; conditions: both sexes, human, cryopreserved hepatocytes, cryopreserved human hepatocytes (pool of 50 mixed gender); 1 μM test compound; 1×10^6 cell/mL; 37 degrees C; read-out: CLint (μL/min/million cells)
Method in brief: (§1)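 Compound at 1 μM (0.1% DMSO) was incubated with cryopreserved pooled human hepatocytes, 1×10^6 cells/mL in Krebs-Henseleit buffer, at 37 °C, sampled up to 240 min. Parent depletion by LC-MS/MS; half-life from first-order decay gave CLint, scaled to hepatic clearance by well-stirred model (fu assumed 1) and extraction ratio.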

human hepatocytes = assay: Hepatocytes stability assay (human hepatocytes); type: in vitro ADME; conditions: human hepatocytes; scaled hepatic clearance divided by liver blood flow (well-stirred model, fu assumed unity)
Method in brief: as §1

Sprague-Dawley rats = assay: Assessment of wake promotion in Sprague-Dawley rats (EEG/EMG); type: in vivo, rat; conditions: male Sprague-Dawley rats; PO; 3 mpk; dosed at ZT5; 6-hour post-dose period
Description: Wake promotion was assessed using electroencephalography (EEG) and electromyography (EMG) in adult male Sprague-Dawley rats. All rats (Charles River Laboratories, Raleigh, NC, USA) were intraperitoneally implanted with telemetry devices (F50-EEE, Data Sciences International Inc., MN, USA) under isoflurane anesthesia. For EEG, stainless steel screws were implanted over frontal cortex and parietal cortex, and reference screws were placed over cerebellum. Additionally, an electrode was placed in neck muscle for EMG. Rats were given carprofen post-surgery and underwent a 7 to 10-day recovery period. Rats habituated to the experimental room for 7 days and were maintained on a 12-hour light-dark cycle.
EEG and EMG data were recorded using the DSI telemetry system and Ponemah software (Data Sciences International Inc., MN, USA). Sleep-wake stages were scored both manually and with Somnivore, a supervised machine learning software platform, in 10 second epochs. Records were visually inspected as needed post-processing.
All test compounds were dissolved in 5% DMSO and suspended in 95% saline with 0.5% methylcellulose and 0.5% tween. […] Unless otherwise indicated, all compounds were dosed orally. Recordings for each rat were initiated immediately after dosing and lasted for 6 hours post-dose.
Two key endpoints include wakefulness time and cortical activation time. Wakefulness time is derived from the sleep-wake stage analysis. Cortical activation time is based on the duration in which frontal gamma oscillatory activity (30-100 Hz), a key feature of wakefulness, was elevated relative to a pre-treatment baseline. Mean cortical activation time was computed relative to vehicle treatment for the 6-hour post-dose period.

Row | SMILES | EC50 [1] | efflux ratio at 2 h, 3 μM (MDR1) | Papp A→B at 2 h, 3 μM (MDR1) | hepatocyte CLint at 1 μM [2] | Extraction Ratio (ER) (human hepatocytes) | Mean cortical activation time (% vehicle treatment) (Sprague-Dawley rats)
1 | C[C@@H]1CCN2C(=O)COc3ccccc3[C@H]3CC[C@H](CC3)OCC2[C@H]1NS(C)(=O)=O (mixture of isomers) [Compound 36] | < 10 nM | > 100 | 0.3 ×10⁻⁶ cm/s | 17 µL/min/1e6 cells | 0.71 | –
2 | O=C1COc2ccccc2C2CCC(CC2)OC[C@H]2[C@@H](NS(=O)(=O)C3CC3)CCCN12 (stereo in doubt) [Compound 1] | – | 6.7 | 1.6 ×10⁻⁶ cm/s | 31 µL/min/1e6 cells | 0.82 | 160.00 % vehicle treatment
3 | Cc1cccc2c1C1CCC(CC1)OC[C@H]1[C@@H](NS(C)(=O)=O)CCCN1C(=O)CO2 (stereo in doubt) [Compound 2] | – | 46 | 0.69 ×10⁻⁶ cm/s | 28 µL/min/1e6 cells | 0.80 | 182.50 % vehicle treatment
4 | CC(C)S(=O)(=O)N[C@H]1CCCN2C(=O)COc3ccccc3C3CCC(CC3)OC[C@@H]12 (stereo in doubt) [Compound 3] | – | 10 | 1.8 ×10⁻⁶ cm/s | 21 µL/min/1e6 cells | 0.76 | 204.79 % vehicle treatment
5 | Cc1ccnc2c1C1CCC(CC1)OC[C@H]1[C@@H](NS(=O)(=O)C(C)C)CCCN1C(=O)CO2 (stereo in doubt) [Compound 10] | – | > 100 | 0.38 ×10⁻⁶ cm/s | 9.4 µL/min/1e6 cells | 0.58 | 82.61 % vehicle treatment
6 | O=C1COc2ccccc2C2CCC(CC2)OC[C@H]2[C@@H](NS(=O)(=O)C(F)(F)F)CCCN12 (stereo in doubt) [Compound 11] | – | 52 | 1.6 ×10⁻⁶ cm/s | 4.2 µL/min/1e6 cells | 0.38 | 411.43 % vehicle treatment
7 | Cc1ccnc2c1C1CCC(CC1)OC[C@H]1[C@@H](NS(C)(=O)=O)CCCN1C(=O)CO2 (stereo in doubt) [Compound 12] | – | 74 | 0.49 ×10⁻⁶ cm/s | 9.7 µL/min/1e6 cells | 0.59 | 108.70 % vehicle treatment
8 | CC(C)S(=O)(=O)N[C@H]1CCCN2C(=O)COc3ncccc3C3CCC(CC3)OC[C@@H]12 (stereo in doubt) [Compound 15] | – | 100 | 0.34 ×10⁻⁶ cm/s | 15 µL/min/1e6 cells | 0.69 | 107.59 % vehicle treatment
9 | Cc1ccc2c(c1)C1CCC(CC1)OC[C@H]1[C@@H](NS(C)(=O)=O)CCCN1C(=O)CO2 (stereo in doubt) [Compound 17] | – | 40 | 0.84 ×10⁻⁶ cm/s | 7.5 µL/min/1e6 cells | 0.53 | 212.31 % vehicle treatment
10 | CC[C@H](C)S(=O)(=O)N[C@H]1CCCN2C(=O)COc3ccccc3C3CCC(CC3)OC[C@@H]12 (stereo in doubt) [Compound 21] | < 10 nM | 52 | 0.8 ×10⁻⁶ cm/s | 36 µL/min/1e6 cells | 0.84 | –
11 | O=C1COc2ccccc2[C@H]2CC[C@H](CC2)OCC2[C@@H](NS(=O)(=O)C3CCOC3)CCCN12 (stereo in doubt) [Compound 22] | < 10 nM | > 100 | 0.18 ×10⁻⁶ cm/s | 13 µL/min/1e6 cells | 0.66 | –
12 | C[C@H](C(F)(F)F)S(=O)(=O)N[C@H]1CCCN2C(=O)COc3ccccc3C3CCC(CC3)OC[C@@H]12 (stereo in doubt) [Compound 23] | < 10 nM | 87 | 0.44 ×10⁻⁶ cm/s | 30 µL/min/1e6 cells | 0.82 | –
13 | C[C@@H](C(F)(F)F)S(=O)(=O)N[C@H]1CCCN2C(=O)COc3ccccc3C3CCC(CC3)OC[C@@H]12 (stereo in doubt) [Compound 24] | < 10 nM | 43 | 0.65 ×10⁻⁶ cm/s | 28 µL/min/1e6 cells | 0.81 | –
14 | CC[C@@H](C)S(=O)(=O)N[C@H]1CCCN2C(=O)COc3ccccc3C3CCC(CC3)OC[C@@H]12 (stereo in doubt) [Compound 25] | < 10 nM | 27 | 0.62 ×10⁻⁶ cm/s | 35 µL/min/1e6 cells | 0.84 | –

Now from value to compound, other results behind:

Row | EC50 [1] | efflux ratio at 2 h, 3 μM (MDR1) | Papp A→B at 2 h, 3 μM (MDR1) | hepatocyte CLint at 1 μM [2] | Extraction Ratio (ER) (human hepatocytes) | SMILES | Mean cortical activation time (% vehicle treatment) (Sprague-Dawley rats)
15 | < 10 nM | 35 | 1.32 ×10⁻⁶ cm/s | 18 µL/min/1e6 cells | 0.73 | O=C1COc2ccccc2[C@H]2CC[C@H](CC2)OCC2[C@@H](NS(=O)(=O)CF)CCCN12 (stereo in doubt) [Compound 38] | –
16 | 10 to 1000 nM | > 5.3 | < 0.14 ×10⁻⁶ cm/s | < 1.9 µL/min/1e6 cells | <0.22 | CS(=O)(=O)N[C@H]1CCCN2C(=O)COc3ccccc3[C@H]3CC[C@@H](OCC12)[C@H](O)C3 (stereo in doubt) [Compound 45] | –
17 | < 10 nM | > 100 | 0.041 ×10⁻⁶ cm/s | 3.7 µL/min/1e6 cells | 0.36 | CS(=O)(=O)N[C@H]1CCCN2C(=O)[C@@H](CO)Oc3ccccc3[C@H]3CC[C@H](CC3)OCC12 (stereo in doubt) [Compound 60] | –
18 | < 10 nM | > 100 | < 0.034 ×10⁻⁶ cm/s | 6.9 µL/min/1e6 cells | 0.51 | CS(=O)(=O)N[C@H]1CCCN2C(=O)[C@H](CO)Oc3ccccc3[C@H]3CC[C@H](CC3)OCC12 (stereo in doubt) [Compound 61] | –
19 | < 10 nM | 100 | 0.43 ×10⁻⁶ cm/s | 31 µL/min/1e6 cells | 0.82 | CC[C@@H]1Oc2ccccc2[C@H]2CC[C@H](CC2)OCC2[C@@H](NS(C)(=O)=O)CCCN2C1=O (stereo in doubt) [Compound 84] | –
20 | < 10 nM | 97 | 0.45 ×10⁻⁶ cm/s | 37 µL/min/1e6 cells | 0.84 | CC[C@H]1Oc2ccccc2[C@H]2CC[C@H](CC2)OCC2[C@@H](NS(C)(=O)=O)CCCN2C1=O (stereo in doubt) [Compound 85] | –
21 | < 10 nM | 49 | 0.56 ×10⁻⁶ cm/s | 12 µL/min/1e6 cells | 0.64 | Cc1ccnc2c1[C@H]1CC[C@H](CC1)OCC1[C@@H](NS(=O)(=O)C3CCOC3)CCCN1C(=O)CO2 (stereo in doubt) [Compound 89] | –
22 | 10 to 1000 nM | 28 | 1.4 ×10⁻⁶ cm/s | 41 µL/min/1e6 cells | 0.86 | C[C@@H]1C[C@H](NS(C)(=O)=O)[C@@H]2CO[C@H]3CC[C@H](CC3)c3ccccc3OCC(=O)N12 [Compound 103] | –
